Test results reported in ChEMBL document CHEMBL1201862, “PubChem BioAssay data set” (2004).
The source made the active and inactive calls. Cut-off read from the data, not from the text of the source, for most assays here: actives have a measured EC50 and inactives only a lower limit.

Assays:
[1] = biological target: FAD-linked sulfhydryl oxidase ALR (Homo sapiens, UniProt P55789); experiment: inhibitors of human ALR sulfhydryl oxidase, dose response, biochemical, H2O2 detection, luminescence, cherry-pick (AID 493248)
[2] = Luminescence Cell-Based Dose Confirmation HTS to Identify Inhibitors of Platelet Dense Granule Release. [Related pubchem assays: 1663 (Primary HTS), 1678 (Summary of Project)]; format: functional
[3] = biological target: Luciferin 4-monooxygenase (Photinus pyralis, UniProt P08659); experiment: firefly luciferase enzyme inhibitors, dose response, biochemical, luminescence (AID 1891)
[4] = Luminescence Cell-Based Dose Response HTS to Identify Activators of Luciferase Translation or Activity in H4 […] Cells. [Related pubchem assays: 1829 (Project Summary), 1814 (Primary HTS)]; format: functional
[5] = NIH-3T3 fibroblast cytotoxicity, dose response, cytotoxicity control, cell-based, fluorescence, Alamar Blue, secondary assay (AID 2327); format: functional;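 note: NIH-3T3 mouse fibroblasts cultured with fluconazole at 8 µg/mL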
[6] = C. albicans growth with fluconazole, confirmation, fluorescence, retest (AID 2467); format: functional, cell-based
[7] = Luminescence Cell-Based Dose Confirmation HTS to Identify Activators of 5'UTR Stem-Loop Driven Alpha-Synuclein mRNA Translation in H4 Neuroglioblastoma Cells. [Related pubchem assays: 1829 (Project Summary), 1814 (Primary HTS)]; format: functional
H4 = experiment: Luminescence Cell-Based Dose Response HTS to Identify Activators of 5'UTR Stem-Loop Driven Prion Protein mRNA Translation in H4 Neuroglioblastoma Cells. [Related pubchem assays: 1829 (Project Summary), 1814 (Primary HTS)]; format: functional; details: Homo sapiens
[8] = biological target: T1, Corticotropin-releasing factor receptor 2/Corticotropin-releasing factor-binding protein (Homo sapiens, UniProt P24387+Q13324); experiment: activators of CRF receptor 2 with binding protein – uHTS hits, confirmation (AID 602473); format: functional; details: read-out: EC50_Mean
T1 sequence (Q13324 whole entry): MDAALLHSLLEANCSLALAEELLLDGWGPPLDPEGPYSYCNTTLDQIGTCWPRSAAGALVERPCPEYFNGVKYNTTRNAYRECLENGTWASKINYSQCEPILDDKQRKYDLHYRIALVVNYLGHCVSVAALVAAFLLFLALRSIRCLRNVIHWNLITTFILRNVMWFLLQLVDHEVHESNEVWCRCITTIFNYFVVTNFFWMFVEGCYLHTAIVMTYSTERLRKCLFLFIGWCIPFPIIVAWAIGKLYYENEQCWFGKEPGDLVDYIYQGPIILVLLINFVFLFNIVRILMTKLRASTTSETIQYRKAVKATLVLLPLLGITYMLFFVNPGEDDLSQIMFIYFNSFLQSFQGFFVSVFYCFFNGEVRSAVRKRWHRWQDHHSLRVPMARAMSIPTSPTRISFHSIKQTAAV
T1 sequence (P24387 whole entry): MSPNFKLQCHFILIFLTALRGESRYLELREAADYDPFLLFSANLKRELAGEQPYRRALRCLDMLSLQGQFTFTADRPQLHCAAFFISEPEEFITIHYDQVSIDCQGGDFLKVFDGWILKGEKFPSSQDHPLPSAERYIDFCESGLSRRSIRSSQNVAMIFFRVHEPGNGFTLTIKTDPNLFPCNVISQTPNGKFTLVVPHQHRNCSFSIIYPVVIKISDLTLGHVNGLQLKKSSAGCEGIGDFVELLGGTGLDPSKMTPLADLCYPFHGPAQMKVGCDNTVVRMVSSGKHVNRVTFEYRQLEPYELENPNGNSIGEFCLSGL

[9] = biological target: T1, Corticotropin-releasing factor receptor 2/Corticotropin-releasing factor-binding protein; experiment: Dose Response confirmation of uHTS hits for small molecule antagonists of the CRF-binding protein and CRF-R2 receptor complex.; format: functional; details: read-out: IC50_Mean
[10] = cytotoxicity toward DRD oncogenic fibroblasts, dose response, cell-based, non-viral oncogenic, luminescence (AID 1934); format: functional; details: Homo sapiens
BJ [11] = experiment: cytotoxicity toward BJ-TERT fibroblasts, dose response, cell-based, RAS-independent, luminescence (AID 1933); format: functional; details: Homo sapiens
BJ [12] = experiment: cells; format: functional, cell-based; details: Homo sapiens
BJ [13] = experiment: cytotoxicity toward BJ-TERT-LT-ST fibroblasts, dose response, cell-based, RAS-independent, luminescence (AID 1935); format: functional; details: Homo sapiens;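 note: BJ fibroblasts immortalized with TERT plus LT and ST oncogenes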
Protein skinhead-1 = biological target: T2, Protein skinhead-1 (Caenorhabditis elegans, UniProt P34707); format: functional
T2 sequence (P34707 whole entry): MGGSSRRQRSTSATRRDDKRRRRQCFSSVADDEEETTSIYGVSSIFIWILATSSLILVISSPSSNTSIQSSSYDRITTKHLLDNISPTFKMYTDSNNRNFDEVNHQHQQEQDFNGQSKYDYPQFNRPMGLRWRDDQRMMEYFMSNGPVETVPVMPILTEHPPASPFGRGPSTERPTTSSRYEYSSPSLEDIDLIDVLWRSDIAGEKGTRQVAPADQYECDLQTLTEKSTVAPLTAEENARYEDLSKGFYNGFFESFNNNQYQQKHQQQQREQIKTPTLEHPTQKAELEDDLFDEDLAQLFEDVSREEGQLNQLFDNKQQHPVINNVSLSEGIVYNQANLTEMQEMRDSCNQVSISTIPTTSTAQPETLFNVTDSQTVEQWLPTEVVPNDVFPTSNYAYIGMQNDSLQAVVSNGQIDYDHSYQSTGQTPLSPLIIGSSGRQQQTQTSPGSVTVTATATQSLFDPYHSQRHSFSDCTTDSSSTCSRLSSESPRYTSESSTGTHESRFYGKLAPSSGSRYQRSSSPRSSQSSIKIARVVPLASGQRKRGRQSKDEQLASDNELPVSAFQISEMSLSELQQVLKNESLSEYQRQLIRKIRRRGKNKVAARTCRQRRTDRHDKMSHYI

Streptococcus = experiment: Group A Streptococcus viability loss, dose response, counter-screen for streptokinase expression inhibitor project, luminescence, BacTiterGlo (AID 1915); format: functional, organism-based;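 note: potency for reduction of bacterial viability or growth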
Streptokinase A = biological target: T3, Streptokinase A (Streptococcus pyogenes serotype M1, UniProt P10520); experiment: S. pyogenes streptokinase expression inhibitors, potency, dose response, plasminogen activation absorbance, OD405 (AID 1914); format: functional, Streptococcus pyogenes M1 GAS;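 note: secreted streptokinase activity via plasminogen activation per viability signal from cell pellet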
T3 sequence (P10520 whole entry): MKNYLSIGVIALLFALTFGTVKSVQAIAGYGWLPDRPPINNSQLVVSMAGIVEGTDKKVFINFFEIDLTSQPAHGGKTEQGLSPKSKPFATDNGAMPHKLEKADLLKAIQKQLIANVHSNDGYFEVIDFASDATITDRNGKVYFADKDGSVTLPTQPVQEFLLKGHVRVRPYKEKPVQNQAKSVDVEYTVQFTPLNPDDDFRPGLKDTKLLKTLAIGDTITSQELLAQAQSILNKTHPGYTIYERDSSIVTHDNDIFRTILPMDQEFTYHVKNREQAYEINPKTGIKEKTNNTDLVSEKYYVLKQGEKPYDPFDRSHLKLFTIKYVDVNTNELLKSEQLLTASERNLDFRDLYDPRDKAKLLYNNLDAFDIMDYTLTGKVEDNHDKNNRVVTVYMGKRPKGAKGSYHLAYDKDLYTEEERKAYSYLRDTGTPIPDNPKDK

[14] = test system: Streptococcus sp. 'group A'; experiment: growth inhibition of control SK(-) GAS strain, dose response, counter-screen for streptokinase expression inhibitor project, luminescence, kanamycin, BacTiterGlo, confirmation (AID 1900); format: functional, organism-based

Luciferin 4-monooxygenase, sequence (P08659 whole entry): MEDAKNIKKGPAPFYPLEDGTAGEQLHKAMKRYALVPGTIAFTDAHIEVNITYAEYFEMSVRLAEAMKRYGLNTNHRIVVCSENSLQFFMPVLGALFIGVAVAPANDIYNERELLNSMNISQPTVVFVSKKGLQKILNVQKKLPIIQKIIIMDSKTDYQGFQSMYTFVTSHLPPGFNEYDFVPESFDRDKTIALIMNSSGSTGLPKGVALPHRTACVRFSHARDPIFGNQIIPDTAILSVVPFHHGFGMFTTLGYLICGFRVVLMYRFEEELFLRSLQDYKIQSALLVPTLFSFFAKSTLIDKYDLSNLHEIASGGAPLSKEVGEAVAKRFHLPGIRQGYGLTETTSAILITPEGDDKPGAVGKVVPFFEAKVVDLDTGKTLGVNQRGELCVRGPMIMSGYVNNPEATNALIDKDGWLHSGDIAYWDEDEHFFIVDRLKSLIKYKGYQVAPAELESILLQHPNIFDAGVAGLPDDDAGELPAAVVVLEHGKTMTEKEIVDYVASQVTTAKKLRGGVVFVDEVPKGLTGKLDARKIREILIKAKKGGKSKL
FAD-linked sulfhydryl oxidase ALR, sequence (P55789 whole entry): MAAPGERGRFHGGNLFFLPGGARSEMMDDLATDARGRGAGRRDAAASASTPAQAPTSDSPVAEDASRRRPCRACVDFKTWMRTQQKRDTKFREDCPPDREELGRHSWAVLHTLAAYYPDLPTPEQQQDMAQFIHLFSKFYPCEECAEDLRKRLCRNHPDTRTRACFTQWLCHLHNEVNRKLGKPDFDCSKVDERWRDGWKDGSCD

Structure (SMILES) | EC50 [2] | EC50 [3] | EC50 [10] | EC50 (BJ [11]) | EC50 (BJ [12]) | EC50 (BJ [13]) | further results
O=C(NNS(=O)(=O)c1ccc(F)cc1)c1cc2ccccc2cc1O | – | – | – | – | – | – | AC50 [1]: 4.07 µM (active)
COc1ccccc1NC(=O)c1cc([N+](=O)[O-])ccc1N1CCOCC1 | > 112 µM (not active) | > 112 µM (not active) | – | – | – | – | –
COc1ccc(N2CCN(C(=O)c3ccc(SC)cc3OC)CC2)cc1 | – | – | – | – | – | – | AC50 [1]: 6.05 µM (active)
c1ccc(CN2CCc3nc4ccccc4cc3C2)cc1 | – | – | – | – | – | – | EC50 [4]: 33.8 µM (active); EC50 [5]: > 160 µM (inconclusive); EC50 [6]: > 38 µM (not active); EC50 [7]: 215 nM (active); EC50 (H4): 52.7 µM (active)
CCOc1ccc(NC(=O)CCNS(=O)(=O)c2cccc3nonc23)cc1 | – | – | – | – | – | – | EC50 [8]: > 53 µM (inactive); IC50 [9]: > 47.1 µM (inactive)
CCCC(=O)Nc1ccc2c(c1)nc(CN1CCN(C(=O)OCC)CC1)n2CC | – | – | 18 µM (active) | 15.4 µM (inconclusive) | 122 µM (active) | > 75 µM (inconclusive) | –
CCOC(=O)c1sc(NN=C2C(=O)CC(C)(C)CC2=O)c(C(=O)OCC)c1C | 20.4 µM (active) | > 112 µM (not active) | – | – | – | – | –
COc1ccc(-c2cc(C(F)F)n3ncc(C(=O)n4ccnc4C)c3n2)cc1 | – | – | 7.6 µM (active) | 7.36 µM (inconclusive) | 15.3 µM (active) | > 150 µM (inconclusive) | –
COc1ccc(NC(=O)c2cn(CCC#N)nc2-c2ccc([N+](=O)[O-])cc2)cc1 | – | – | > 150 µM (not active) | > 150 µM (not active) | > 150 µM (not active) | > 150 µM (not active) | –
c1ccc(-c2cc3nccc(-c4ccccn4)n3n2)cc1 | – | – | – | – | – | – | EC50 [8]: > 53 µM (inactive); IC50 [9]: > 47.1 µM (inactive); IC50 (Protein skinhead-1): 47 µM (active)
COc1ccccc1NC1=NC(=O)/C(=C/c2ccc(N(C)C)cc2)S1 | – | – | 1.45 µM (active) | 1.91 µM (active) | 59 µM (active) | 64.2 µM (inconclusive) | EC50 (Streptococcus): 46.7 µM (active); EC50 (Streptokinase A): > 150 µM (not active); EC50 [14]: 15.1 µM (active)
Cn1cc(S(=O)(=O)N2CCCC2)cc1C(=O)N1CCN(c2cccc(Cl)c2)CC1 | > 112 µM (not active) | > 112 µM (not active) | – | – | – | – | –
Cn1c(=O)n(C)c2cc(S(=O)(=O)NCc3ccccc3)ccc21 | > 112 µM (not active) | > 112 µM (not active) | – | – | – | – | –
